# Results from patent US9326972B2, “Use of phenylmethimazoles, methimazole derivatives, and tautomeric cyclic thiones for the treatment of autoimmune/inflammatory diseases associated with toll-like receptor overexpression” (Ohio University, priority 2004, dated 2016).
# Experiments:
# [1] = tested on: HAEC; experiment: IFN-β-induced IRF-1 and Stat1 phosphorylation in human aortic endothelial cells (immunoblot); format: cell-based
# [2] = tested on: NOD mice; experiment: Glucosuria in NOD mice, infection/Coxsackie virus-induced Type 1 diabetes; format: in vivo, mouse
# Excerpt: Mice were housed in germ free facilities, termed clean, or normal facilities where viral infections can occur, termed dirty. Animals showing urine Tes-Tape positivity greater than 1+ are considered positive and to have diabetes (L. S. Wicker, et al., Diabetes, 35:855-60 (1986)). In experiments in a “dirty” animal facility, C10 was effective in retarding the development of glucosuria in the NOD mice. When this was repeated in a “clean” or germ free laboratory, no effect of C10 was noted. What was noted, however, was the onset of glucosuria in the mice was much earlier in the animals maintained in “dirty” as opposed to “clean” mouse facilities. Further, in experiments with 8 mice in each group, even in a dirty facility, the injection of CVB4 Edwards Coxsackie virus advanced the expression of glucosuria (last two rows).
# Induction of Diabetes and treatment with drugs. NOD/Lt female mice were from the Jackson Laboratory (Bar Harbor, Me.). All experiments were carried out in accordance with “Guide for Care and Use of Laboratory Animals” (NIH Publication No. 85-23, revised 1985). Mice were injected with 200 μl PBS or 5×10^5 PFU of the CVB4 Edwards Coxsackie virus strain ip (D. V. Serreze, et al., J Virol, 79:1045-52 (2005)). Mice were treated daily with i/p injections of C-10, MMI, 2.5% DMSO(C10 carrier control), or PBS (MMI carrier control). After injections, blood and urinary glucose levels were monitored weekly using Chemstrips (Boehringer Mannheim). Consecutive values of >240 mg/dl on two occasions >24 h apart were considered diagnostic of diabetes. Experiments used 8 mice/group in up to 3 experiments.
# [3] = tested on: MHC gene expression; details: cited from earlier work
# [4] = tested on: horses; experiment: LPS-induced endotoxemia and endotoxic shock in horses; format: in vivo, horse; details: for Dyspnea and Tachypnea / Lung Auscultation / Toxemia and Vascular Congestion / Toxemia, Vascular Congestion, Cyanosis: C10 2 mg/kg iv pretreatment
# [5] = tested on: TLR3; experiment: Inhibition of IFN-β- or dsRNA transfection-increased TLR3, PKR, MHC class I RNA in FRTL-5 thyrocytes (Northern/PCR); format: cell-based, rat; details: for % TLR3 Inhibition vs Control: 3 replicates
# Experimental: FIG. 4. Phenylmethimazole (C10) and Methimazole (MMI) inhibit the ability of IFN-β to increase TLR3, PKR, and MHC class I RNA levels in FRTL-5 thyrocytes. Cells were incubated with or without 100 U/ml of IFN-β for 3 hours in the presence of dimethyl sulfoxide (DMSO), C10, or MMI. DMSO is the vehicle control. Northern blots were performed with 20 ug of total RNA to detect TLR 3, PKR, MHC I, and GAPDH using radiolabeled cDNA probes. Data are representative of multiple experiments. As was the case for Poly (I:C) transfection in FIG. 2B, IFN-β increased TLR3.
# We evaluated the ability of C10 and MMI to inhibit TLR3 expression and signaling. C10 prevented the ability of dsRNA transfection and incubation with IFN-β to increase TLR3RNA levels in FRTL-5 cells, as measured by PCR (FIG. 4A). […] DMSO is the vehicle for C10 because of the hydrophobicity of C10; it had no significant effect on basal activity and was used as the control value in all experiments described herein.
# The C-10 and MMI reduced the ability of IFN-β to increase PKR and MHC class I RNA levels, albeit relatively less than TLR3 (FIG. 4B). […] We questioned the C10 mechanism of action.
# RNA Isolation and Northern Analysis. […] .
# RT-PCR. DNA was removed from total RNA using the DNA-free Kit (Ambion) according to the manufacturer's instructions. One μg of RNA was used to synthesize cDNA using the Advantage RT-for-PCR Kit (BD Biosciences) according to the manufacturer's protocol. Fifty ng of cDNA was subsequently used for PCR of TLR-3, and β-Actin; 250 ng of cDNA was used for PCR of IFN-β. The primers used for amplification of human TLR-3 and β-Actin have been previously described (K. U. Saikh, et al., Clin Diagn Lab Immunol, 10:1065-73 (2003)).
# [6] = tested on: mice; experiment: Colitis model in mice (DSS); format: in vivo, mouse; details: 10 animals, 0.1 mg/kg, 14 days
# [7] = tested on: C57BL/6J mice; experiment: LPS-induced endotoxic shock in C57BL/6J mice: survival and signs of shock; format: in vivo, mouse; details: for Survival % of Control: Toxic Shock model, 10 animals, 1.5 days
# [8] = + CVB4 Edwards Coxsackie virus, Dirty facility
# [9] = LPS 10 μg/kg, C10 (1 mg/kg) iv pretreatment, time 0.15-6 hours
# [10] = LPS 20 mg/kg i/p, drug i/p 30 min before LPS, 8 mice per group
smiles,measurement,setting,value
"Cn1c(-c2ccccc2)cnc1S [Compound C10, 5-Phenylmethimazole]",Stat1 serine phosphorylation at residue 727,"[1]; 100 U/mL hIFN-β 2 hours, 1 mM C10",decreased
same,IFN-β induced Stat1 phosphorylation (Y701),"[1]; 2 hours, C10 1 mM",decrease
same,IFN-β induction of IRF-1 protein,"[1]; 2 hours, C10 1 mM",strongly decreased
same,glucosuria and death in Coxsackie's virus induced NOD mouse model of diabetes,[2],effective in retarding glucosuria and death
same,"Glucosuria % of Total, Week 1",[2]; [8],0 % of Total
same,"Glucosuria % of Total, Week 4",[2]; [8],0 % of Total
same,"Glucosuria % of Total, Week 8",[2]; [8],20 % of Total
same,"Glucosuria % of Total, Week 12",[2]; [8],30 % of Total
same,"Glucosuria % of Total, Week 1",[2]; Clean facility,0 % of Total
same,"Glucosuria % of Total, Week 4",[2]; Clean facility,0 % of Total
same,"Glucosuria % of Total, Week 8",[2]; Clean facility,0 % of Total
same,"Glucosuria % of Total, Week 12",[2]; Clean facility,20 % of Total
same,"Glucosuria % of Total, Week 16",[2]; Clean facility,40 % of Total
same,"Glucosuria % of Total, Week 20",[2]; Clean facility,100 % of Total
same,"Glucosuria % of Total, Week 1",[2]; Dirty facility,0 % of Total
same,"Glucosuria % of Total, Week 4",[2]; Dirty facility,0 % of Total
same,"Glucosuria % of Total, Week 8",[2]; Dirty facility,0 % of Total
same,"Glucosuria % of Total, Week 12",[2]; Dirty facility,0 % of Total
same,potency in suppressing MHC gene expression relative to MMI,[3],50-100 fold
same,"symptoms of endotoxemia (hypotension, hypoxemia, collapse, cardiac anoxia, acute renal failure)",[4]; LPS,clearly blocked
same,Dyspnea and Tachypnea,"[4]; LPS 10 μg/kg, 1 week",Normal
same,Lung Auscultation,"[4]; LPS 10 μg/kg, 1 week",Normal
same,Toxemia and Vascular Congestion,"[4]; LPS 10 μg/kg, 1 week",Normal
same,"Toxemia, Vascular Congestion, Cyanosis","[4]; LPS 10 μg/kg, 1 week",Normal
same,Dyspnea and Tachypnea,"[4]; LPS 10 μg/kg, time 0.00 hours",Normal
same,Lung Auscultation,"[4]; LPS 10 μg/kg, time 0.00 hours",Normal
same,Toxemia and Vascular Congestion,"[4]; LPS 10 μg/kg, time 0.00 hours",Normal
same,"Toxemia, Vascular Congestion, Cyanosis","[4]; LPS 10 μg/kg, time 0.00 hours",Normal
same,Dyspnea and Tachypnea,"[4]; LPS 10 μg/kg, time 0.15 hours",Normal
same,"Toxemia, Vascular Congestion, Cyanosis","[4]; LPS 10 μg/kg, time 0.15 hours",Normal
same,Dyspnea and Tachypnea,"[4]; LPS 10 μg/kg, time 0.3 hours",Normal
same,Lung Auscultation,"[4]; LPS 10 μg/kg, time 0.3 hours",Normal
same,Toxemia and Vascular Congestion,"[4]; LPS 10 μg/kg, time 0.3 hours",Weak Congestion
same,"Toxemia, Vascular Congestion, Cyanosis","[4]; LPS 10 μg/kg, time 0.3 hours",Weak Congestion
same,Dyspnea and Tachypnea,"[4]; LPS 10 μg/kg, time 3 hours",Normal
same,Lung Auscultation,"[4]; LPS 10 μg/kg, time 3 hours",Normal
same,Toxemia and Vascular Congestion,"[4]; LPS 10 μg/kg, time 3 hours",Weak Congestion
same,"Toxemia, Vascular Congestion, Cyanosis","[4]; LPS 10 μg/kg, time 3 hours",Weak Congestion
same,Dyspnea and Tachypnea,"[4]; LPS 10 μg/kg, time 24 hours",Normal
same,Lung Auscultation,"[4]; LPS 10 μg/kg, time 24 hours",Normal
same,Toxemia and Vascular Congestion,"[4]; LPS 10 μg/kg, time 24 hours",Normal
same,"Toxemia, Vascular Congestion, Cyanosis","[4]; LPS 10 μg/kg, time 24 hours",Normal
same,"abdominal pain, diarrhea, collapse or prostration","[4]; LPS 10 μg/kg, C10 (1 mg/kg) iv pretreatment, 1 week",normal
same,"abdominal pain, diarrhea, collapse or prostration","[4]; LPS 10 μg/kg, C10 (1 mg/kg) iv pretreatment, time 0 hours",normal
same,"abdominal pain, diarrhea, collapse or prostration",[4]; [9],Normal
same,number of stools,[4]; [9],1 stool
same,"abdominal pain, diarrhea, collapse or prostration","[4]; LPS 10 μg/kg, C10 (1 mg/kg) iv pretreatment, time 24 hours",normal
same,decrease of TLR3 and IFN-β-mRNA levels in thyrocytes vs solutions with DMSO,[5]; C10 stored in aqueous cyclodextrin preparation for 6 weeks prior to use,equally effective
same,IFN-β increased MHC class I and PKR mRNA levels,"[5]; FRTL-5, 100 U/ml IFN-β 3 hours",significantly decreased
same,IFN-β-increased TLR3 RNA levels,"[5]; FRTL-5, 100 U/ml IFN-β 3 hours, C10 0.5 mM, MMI 5 mM",totally prevented
same,IFN-β increased MHC class I and PKR mRNA levels,"[5]; FRTL-5, 100 U/ml IFN-β 3 hours, listed as C-10",reduced
same,basal level of TLR 3 mRNA,"[5]; FRTL-5, no IFN-β",slightly reduced
same,% TLR3 Inhibition vs Control,"[5]; IFN-β increased TLR3 RNA, C10 0.1 mM in Excip.",90%
same,% TLR3 Inhibition vs Control,"[5]; dsRNA increased TLR3 RNA, C10 0.1 mM in DMSO",90%
same,Survival % of Control,[6]; Ip freshly diluted in DMSO,100%
same,Survival % of Control,[6]; Oral stored in excipient 1 week,100%
same,survival / protection from death after LPS injection,"[7]; C10 1 mg/kg i/p 30 minutes before LPS 20 mg/kg, 36 hours",100%
same,survival (cases),[7]; C10 0.1 to 1 mg/kg administered 30 min to 12 hours after lethal LPS injection,100%
same,duration of survival observed,"[7]; C10-treated LPS mice, as long as observed",≥ 4 weeks
same,survival,"[7]; C10 daily doses of 0.1 or 1 mg/kg, 12 hours after challenge with LPS",100%
same,"Number of surviving mice, 6 hrs",[7]; [10],8
same,"Number of surviving mice, 12 hrs",[7]; [10],8
same,"Signs of shock at 12 hours, % of Animals",[7]; LPS-challenged mice,100 % of Animals
same,prevention of death vs freshly made C10 i.p. in DMSO,"[7]; LPS-induced toxic shock, oral excipient-solubilized C10 stored diluted at 4° C. for 8 weeks, 1 mg/kg",as effective
same,Survival % of Control,"[7]; 1 mg/kg, Ip diluted & stored in DMSO 1 wk",0%
same,Survival % of Control,"[7]; 1 mg/kg, Ip freshly diluted in DMSO",100%
same,Survival % of Control,"[7]; 1 mg/kg, Oral diluted & stored in excipient 6 wks",100%
same,Survival % of Control,"[7]; 1 mg/kg, Oral stored in excipient 1 week",100%
